The text below walks through data of patent US12318398B2, “MST1 kinase inhibitor and use thereof” (priority 2018, dated 2025).

The target of one experiment is MST1 (Homo sapiens (Human), UniProt Q13043). Briefly: In vitro enzyme activity test (ADP-GLO). It is filed as biochemical. On the procedure:
The IC50 values of the compounds against MST1 were determined. The protein kinase MST1 and the substrate were obtained from commercial sources.
5.4 μL of protein kinase MST1 diluted to a certain concentration (final concentration was 2.5 ng/μL) and 1 μL of serially diluted drug compounds and control compound XMU-MP-1 were taken to react at room temperature for 10 minutes (final drug concentrations were 10 μM, 1 μM, 0.3 μM, 0.1 μM, 0.03 μM, 0.01 μM, 0.003 μM, 0.001 μM, respectively).
6 μL of a mixture of ATP (with a final reaction concentration of 50 μM) and substrate was added to the above reaction tube to react at 37° C. for 1 hour. The reaction buffer was 40 mM Tris, 7.5; 20 mM MgCl2; 0.1 mg/ml BSA; 50 μM DTT.
5 μL of the kinase mixture after the reaction was taken to a 384-well plate, and 5 μL of ADP-GLO™ reagent was added thereto. After reaction at room temperature for 40 minutes, the kinase reaction was terminated and the remaining ATP was consumed.
10 μL of a kinase detection reagent was added to convert ADP into ATP, and a coupled luciferase/luciferin reaction was utilized to detect the newly synthesized ATP. Envision was used to read and plot the data, and calculate the IC50 value.
In general terms: ADP-Glo turns the ADP formed in a reaction into a luminescent signal.

Experiment [1] deals with autophosphorylation of MST1. The experiment is described as follows: Effect on MST1 signaling pathway of pancreatic β cells. In kind it is cell-based, mouse. To be noted: MIN-6 cells, 1 μM, 72 hours, 33.3 mM glucose. As to the method:
(§1) The effects of compound 1 and the control compound XMU-MP-1 on MST1 signaling pathway such as autophosphorylation of MST1, apoptosis signaling pathway such as cleavage of four proteins Caspase9/7/3 and PARP, expression of BIM, BAX, BCL-2, BCL-XL protein, proliferation-related signaling pathway such as autophosphorylation of AKT and ERK, and phosphorylation and protein expression of insulin secretion transcription factor PDX1 were tested in mouse pancreatic β-cells, MIN-6 cells (Hunan Fenghuishengwu technology Co., Ltd.). Compound 1 of different concentrations (0 μM, 0.3 μM, 1 μM, 3 μM in DMSO) and XMU-MP-1 of 1 μM (in DMSO) were used to treat the cell line for 72 hours in a medium with a glucose content of 33.3 mM, respectively. One of the control DMSO group involved 5.5 mM glucose and the other one involved 33.3 mM glucose. The samples were collected.

A further experiment has as its system PDX1. Briefly: Effect on insulin secretion transcription factor PDX1 in pancreatic β cells. In kind it is cell-based, mouse. The settings on record: MIN-6 cells, 72 hours, 33.3 mM glucose. As to the method:
as §1

The test system of the next experiment is C57BL/6 mice. The experiment is described as follows: Liver injury repair experiment (paracetamol/APAP-induced). In kind it is in vivo. On the procedure:
C57BL/6 mice, male, 20 g, were maintained in a SPF animal room. Thirty C57BL/6 mice were fasted for 12 hours overnight, and 5 mice of which were intraperitoneally injected with normal saline to act as a normal control group, and the other 25 mice were intraperitoneally injected with paracetamol (APAP) (purchased from Sigma)-600 mg/kg, and randomly divided into 5 groups after 30 minutes, wherein the 5 groups include vehicle (5% DMSO in water), compound 1-1-po, compound 1-2-po, compound 1-4-po, XMU-MP-1-ip groups. Mice in the vehicle group were administered intragastrically with vehicle control; mice in the compound 1-1-po, compound 1-2-po, compound 1-4-po groups were administered intragastrically with compound 1 at 1 mg/kg, 2 mg/kg or 4 mg/kg, respectively; mice in the XMU-MP-1-ip group were intraperitoneally administered with the control compound XMU-MP-1 at 1 mg/kg. After the administration, the body weight of the mice was monitored and the survival status of the mice was observed.

For experiment [2], the system named is autophosphorylation of AKT and ERK. The experiment is described as follows: Effect on proliferation-related signaling pathway of pancreatic β cells. It is filed as cell-based, mouse. To be noted: MIN-6 cells, 72 hours, 33.3 mM glucose. As to the method: as §1
A further experiment concerns MIN-6 cells. The experiment is described as follows: Proliferation of MIN-6 cells (cell counter). The settings on record: 0.3-3 μM, 72 hours, as the drug concentration increases. As to the method: as §1
JIMBIO cell counter (EXCEL HERO TECHNOLOGY LIMITED) was used to detect the effect on the proliferation of MIN-6 cells after 72 hours of the administration.

Experiment [3] has as its system Caspase9/7/3, PARP, BIM, BCL-XL. Briefly: Effect on apoptosis signaling pathway of pancreatic β cells. It is filed as cell-based, mouse. To be noted: MIN-6 cells, 1 μM, 72 hours, 33.3 mM glucose. As to the method:
as §1

The mark [4] stands for this setting: ATP 50 μM, 37° C. 1 hour, read-out: MST1 (IC50/μM).
Where [5] appears, read: read-out: MST1 (IC50/μM), ATP 50 μM, 37° C. 1 hour.

Like-named read-outs stand apart in the source and are kept apart here.

Chain of MST1 (Q13043 whole entry): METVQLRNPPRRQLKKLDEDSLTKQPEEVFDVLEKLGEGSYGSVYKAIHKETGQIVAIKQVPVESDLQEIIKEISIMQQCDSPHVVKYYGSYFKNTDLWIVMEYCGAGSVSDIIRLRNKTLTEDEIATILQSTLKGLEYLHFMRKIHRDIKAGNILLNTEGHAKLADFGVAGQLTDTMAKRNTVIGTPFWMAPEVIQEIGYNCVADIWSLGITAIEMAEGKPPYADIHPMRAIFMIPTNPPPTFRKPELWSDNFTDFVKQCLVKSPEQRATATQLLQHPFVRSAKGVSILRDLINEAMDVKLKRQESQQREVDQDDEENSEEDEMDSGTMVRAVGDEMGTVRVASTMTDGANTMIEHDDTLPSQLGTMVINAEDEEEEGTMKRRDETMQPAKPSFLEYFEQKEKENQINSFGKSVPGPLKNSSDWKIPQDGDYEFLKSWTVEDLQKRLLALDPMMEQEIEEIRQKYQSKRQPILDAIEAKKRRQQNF

Take `CN1C(=O)C(c2ccccc2C(F)(F)F)N(C)c2nc(Nc3ccc(S(N)(=O)=O)cc3)ncc21` (centres unmarked) [Compound 22, 4-((5,8-dimethyl-6-oxo-7-(2-(trifluoromethyl)phenyl)-5,6,7,8-tetrahydropteridin-2-yl)amino)benzsulfamide]: the IC50 at MST1 (setting [4]) worked out at 0.0563 µM. `CN1C(=O)C2(CCCC2)N(C)c2nc(Nc3ccc(S(N)(=O)=O)cc3)ncc21` [Compound 14, 4-((5′,8′-dimethyl-6′-oxo-5′,8′-dihydro-6′H-spiro[cyclopentan-1,7′-pteridin]-2′-yl)amino)benzsulfamide]: the IC50 on MST1 (setting [4]) was determined as 0.129 µM.

For `CN1C(=O)C(c2ccccc2F)N(C)c2nc(Nc3ccc(S(N)(=O)=O)cc3)ncc21` (centres unmarked) [Compound 21, 4-((7-(2-fluorophenyl)-5,8-dimethyl-6-oxo-5,6,7,8-tetrahydropteridin-2-yl)amino)benzsulfamide], the IC50 at MST1 (setting [4]) turned out to be 0.0753 µM.

In the case of `CN1C(=O)C(c2c(F)cccc2F)N(C)c2nc(Nc3ccc(S(N)(=O)=O)cc3)ncc21` (centres unmarked) [Compound 1, 4-((7-(2,6-difluorophenyl)-5,8-dimethyl-6-oxo-5,6,7,8-tetrahydropteridin-2-yl)amino)benzsulfamide], the “autophosphorylation of MST1” value in experiment [1] is “significantly inhibit”. Also, in the experiment on PDX1, the “expression of PDX1” value was “promotes the expression of PDX1 to a certain extent” and the “phosphorylation of the transcription factor PDX1” value is reported as “a certain inhibitory effect”. Also, the “survival rate of the mice” value in the experiment with C57BL/6 mice (1 mg/kg intragastrically after APAP 600 mg/kg ip) amounted to 80%. The “survival of the mice” value in the experiment with C57BL/6 mice (2 mg/kg intragastrically after APAP 600 mg/kg ip) was “all escaped from death”. The “survival of the mice” value in the experiment on C57BL/6 mice (4 mg/kg intragastrically after APAP 600 mg/kg ip) is on record as “all escaped from death”. For the same compound, the weight of mice entry in the experiment with C57BL/6 mice (after APAP 600 mg/kg ip, compound 1 po 1-4 mg/kg, XMU-MP-1 ip 1 mg/kg) is “can gradually recover”. In addition, in experiment [2], the AKT autophosphorylation entry is given as “does not affect” and the ERK autophosphorylation result was “can activate”. The IC50 on MST1 (setting [5]) is 0.023 µM. Moreover, the cell proliferation result with MIN-6 cells is “can promote cell proliferation”. Moreover, in experiment [3], the “cleavage of the four proteins Caspase9/7/3 and PARP” value is recorded as “inhibit the cleavage”; the “expression of pro-apoptosis-related proteins such as BIM” value is reported as “down-regulate”; the “expression of the anti-apoptotic protein BCL-XL” value is given as “promote the expression”. In the case of `CN1C(=O)C(c2cccs2)N(C)c2nc(Nc3ccc(S(N)(=O)=O)cc3)ncc21` (centres unmarked) [Compound 20, 4-((5,8-dimethyl-6-oxo-7-(thien-2-yl)-5,6,7,8-tetrahydropteridin-2-yl)amino)benzsulfamide], the IC50 on MST1 (setting [4]) was 0.0879 µM. For the compound `CN1C(=O)[C@H](c2ccccc2)N(C)c2nc(Nc3ccc(S(N)(=O)=O)cc3)ncc21` [Compound 4, (S)-4-((5,8-dimethyl-6-oxo-7-phenyl-5,6,7,8-tetrahydropteridin-2-yl)amino)benzsulfamide], the IC50 at MST1 (setting [5]) was determined as 0.197 µM. In the case of `CC(C)CC1C(=O)N(C)c2cnc(Nc3ccc(S(N)(=O)=O)cc3)nc2N1C` (centres unmarked) [Compound 16, 4-((7-isobutyl-5,8-dimethyl-6-oxo-5,6,7,8-tetrahydropteridin-2-yl)amino)benzsulfamide], the IC50 at MST1 (setting [4]) worked out at 0.0767 µM. Turning to `CN1C(=O)C(c2c(F)cccc2F)N(C)c2nc(Nc3ccc(S(=O)(=O)N(C)C4CC4)cc3)ncc21` (centres unmarked) [Compound 32, N-cyclopropyl-4-((7-(2,6-difluorophenyl)-5,8-dimethyl-6-oxo-5,6,7,8-tetrahydropteridin-2-yl)amino)-N-methylbenzsulfamide], the IC50 at MST1 (setting [5]) is 0.0316 µM. With `CN1C(=O)C(c2cccc(F)c2)N(C)c2nc(Nc3ccc(S(N)(=O)=O)cc3)ncc21` (centres unmarked) [Compound 11, 4-((7-(3-fluorophenyl)-5,8-dimethyl-6-oxo-5,6,7,8-tetrahydropteridin-2-yl)amino)benzsulfamide], the IC50 at MST1 (setting [4]) is 0.134 µM. With `CN1C(=O)[C@@H](c2ccccc2)N(C)c2nc(Nc3ccc(S(N)(=O)=O)cc3)ncc21` [Compound 10, (R)-4-((5,8-dimethyl-6-oxo-7-phenyl-5,6,7,8-tetrahydropteridin-2-yl)amino)benzsulfamide], the IC50 on MST1 (setting [5]) is 0.0987 µM. As for `CCNS(=O)(=O)c1ccc(Nc2ncc3c(n2)N(C)C(c2c(F)cccc2F)C(=O)N3C)cc1` (centres unmarked) [Compound 38, 4-((7-(2,6-difluorophenyl)-5,8-dimethyl-6-oxo-5,6,7,8-tetrahydropteridin-2-yl)amino)-N-ethylbenzsulfamide], at MST1 (setting [5]), the IC50 stood at 0.0516 µM. In the case of `CN1C(=O)C(c2c(F)cccc2F)N(C)c2nc(Nc3ccc(S(=O)(=O)NCC4CC4)cc3)ncc21` (centres unmarked) [Compound 33, N-(cyclopropylmethyl)-4-((7-(2,6-difluorophenyl)-5,8-dimethyl-6-oxo-5,6,7,8-tetrahydropteridin-2-yl)amino)benzsulfamide], the IC50 on MST1 (setting [4]) was found to be 0.0796 µM. On to `CN1C(=O)C(c2ccccc2)N(C)c2nc(Nc3ccc(S(=O)(=O)NC4CC4)cc3)ncc21` (centres unmarked) [Compound 6, N-cyclopropyl-4-((5,8-dimethyl-6-oxo-7-phenyl-5,6,7,8-tetrahydropteridin-2-yl)amino)benzsulfamide], for which the IC50 at MST1 (setting [5]) was 0.143 µM. `CN1C(=O)C2(CC2)N(C)c2nc(Nc3ccc(S(N)(=O)=O)cc3)ncc21` [Compound 7, 4-((5′,8′-dimethyl-6′-oxo-5′,8′-dihydro-6′H-spiro[cyclopropan-1,7′-pteridin]-2′-yl)amino)benzsulfamide]: the IC50 on MST1 (setting [4]) worked out at 0.103 µM. As to `CN1C(=O)C2(CCC2)N(C)c2nc(Nc3ccc(S(N)(=O)=O)cc3)ncc21` [Compound 15, 4-((5′,8′-dimethyl-6′-oxo-5′,8′-dihydro-6′H-spiro[cyclobutan-1,7′-pteridin]-2′-yl)amino)benzsulfamide], the IC50 at MST1 (setting [4]) came to 0.141 µM. Turning to `Cc1ccccc1C1C(=O)N(C)c2cnc(Nc3ccc(S(N)(=O)=O)cc3)nc2N1C` (centres unmarked) [Compound 25, 4-((5,8-dimethyl-6-oxo-7-(o-methylphenyl)-5,6,7,8-tetrahydropteridin-2-yl)amino)benzsulfamide], the IC50 on MST1 (setting [5]) amounted to 0.0227 µM.

As for `CCCC1C(=O)N(C)c2cnc(Nc3ccc(S(N)(=O)=O)cc3)nc2N1C` (centres unmarked) [Compound 17, 4-((5,8-dimethyl-6-oxo-7-propyl-5,6,7,8-tetrahydropteridin-2-yl)amino)benzsulfamide], the IC50 on MST1 (setting [4]) stood at 0.206 µM. Turning to `CN1C(=O)C(C2CC2)N(C)c2nc(Nc3ccc(S(N)(=O)=O)cc3)ncc21` (centres unmarked) [Compound 19, 4-((7-cyclopropyl-5,8-dimethyl-6-oxo-5,6,7,8-tetrahydropteridin-2-yl)amino)benzsulfamide], on MST1 (setting [4]), the IC50 was found to be 0.137 µM. Regarding `CN1C(=O)C(c2c(F)cccc2F)N(C)c2nc(Nc3ccc(S(=O)(=O)NC4CC4)cc3)ncc21` (centres unmarked) [Compound 27, N-cyclopropyl-4-((7-(2,6-difluorophenyl)-5,8-dimethyl-6-oxo-5,6,7,8-tetrahydropteridin-2-yl)amino)benzsulfamide], the IC50 at MST1 (setting [5]) worked out at 0.113 µM.
